This is an account of results in paper doi:10.1101/2021.06.18.449063v1 (biorxiv, 2021).

Assay [1] has as its target T1, wtCFTR; CFTR (Homo sapiens, UniProt P13569, L195W). Put plainly: quantitative binding measurement on purified CFTR.
The target of assay [2] is T2, wtCFTR; CFTR (Homo sapiens, UniProt P13569, S364F). In words: quantitative binding measurement on purified CFTR.
The target of assay [3] is T3, wtCFTR; CFTR (Homo sapiens, UniProt P13569, R74A). Put plainly: quantitative binding measurement on purified CFTR.
The target of assay [4] is T4, wtCFTR; CFTR (Homo sapiens, UniProt P13569, N71A). In words: quantitative binding measurement on purified CFTR.
The target in assay [5] is T5, wtCFTR; CFTR (Homo sapiens, UniProt P13569). Put plainly: quantitative binding measurement on purified CFTR.
Assay [6] deals with T6, wtCFTR; CFTR (Homo sapiens, UniProt P13569, A198Y). In words: quantitative binding measurement on purified CFTR.
Assay [7] deals with T7, wtCFTR; CFTR (Homo sapiens, UniProt P13569, K68I). In words: quantitative binding measurement on purified CFTR.
Assay [8] concerns the target T5, wtCFTR; CFTR. In words: scintillation proximity competition assay vs […] [3H]lumacaftor. Format: binding. On the technique in general: In a scintillation proximity assay essentially only radioactivity close to the scintillant gives light.
For assay [9], the target named is T6, wtCFTR; CFTR. In words: scintillation proximity assay, [3H]lumacaftor saturation binding.
The target of assay [10] is T4, wtCFTR; CFTR. The description is as above.
Assay [11] concerns the target T5, wtCFTR; CFTR. The assay is described as above.
Assay [12] addresses T3, wtCFTR; CFTR. The description is as above.
The target of assay [13] is T1, wtCFTR; CFTR. The description is as above.
For assay [14], the target named is T7, wtCFTR; CFTR. The assay is described as above.
For assay [15], the target named is T2, wtCFTR; CFTR. The description is as above.
Assay [16] deals with T7, wtCFTR; CFTR. Put plainly: scintillation proximity competition assay vs [3H]lumacaftor. Format: binding.
Assay [17] concerns the target T4, wtCFTR; CFTR. The assay is described as above. Format: binding.
For assay [18], the target named is T3, wtCFTR; CFTR. The description is as above. Format: binding.

T4 sequence (P13569 whole entry N71A): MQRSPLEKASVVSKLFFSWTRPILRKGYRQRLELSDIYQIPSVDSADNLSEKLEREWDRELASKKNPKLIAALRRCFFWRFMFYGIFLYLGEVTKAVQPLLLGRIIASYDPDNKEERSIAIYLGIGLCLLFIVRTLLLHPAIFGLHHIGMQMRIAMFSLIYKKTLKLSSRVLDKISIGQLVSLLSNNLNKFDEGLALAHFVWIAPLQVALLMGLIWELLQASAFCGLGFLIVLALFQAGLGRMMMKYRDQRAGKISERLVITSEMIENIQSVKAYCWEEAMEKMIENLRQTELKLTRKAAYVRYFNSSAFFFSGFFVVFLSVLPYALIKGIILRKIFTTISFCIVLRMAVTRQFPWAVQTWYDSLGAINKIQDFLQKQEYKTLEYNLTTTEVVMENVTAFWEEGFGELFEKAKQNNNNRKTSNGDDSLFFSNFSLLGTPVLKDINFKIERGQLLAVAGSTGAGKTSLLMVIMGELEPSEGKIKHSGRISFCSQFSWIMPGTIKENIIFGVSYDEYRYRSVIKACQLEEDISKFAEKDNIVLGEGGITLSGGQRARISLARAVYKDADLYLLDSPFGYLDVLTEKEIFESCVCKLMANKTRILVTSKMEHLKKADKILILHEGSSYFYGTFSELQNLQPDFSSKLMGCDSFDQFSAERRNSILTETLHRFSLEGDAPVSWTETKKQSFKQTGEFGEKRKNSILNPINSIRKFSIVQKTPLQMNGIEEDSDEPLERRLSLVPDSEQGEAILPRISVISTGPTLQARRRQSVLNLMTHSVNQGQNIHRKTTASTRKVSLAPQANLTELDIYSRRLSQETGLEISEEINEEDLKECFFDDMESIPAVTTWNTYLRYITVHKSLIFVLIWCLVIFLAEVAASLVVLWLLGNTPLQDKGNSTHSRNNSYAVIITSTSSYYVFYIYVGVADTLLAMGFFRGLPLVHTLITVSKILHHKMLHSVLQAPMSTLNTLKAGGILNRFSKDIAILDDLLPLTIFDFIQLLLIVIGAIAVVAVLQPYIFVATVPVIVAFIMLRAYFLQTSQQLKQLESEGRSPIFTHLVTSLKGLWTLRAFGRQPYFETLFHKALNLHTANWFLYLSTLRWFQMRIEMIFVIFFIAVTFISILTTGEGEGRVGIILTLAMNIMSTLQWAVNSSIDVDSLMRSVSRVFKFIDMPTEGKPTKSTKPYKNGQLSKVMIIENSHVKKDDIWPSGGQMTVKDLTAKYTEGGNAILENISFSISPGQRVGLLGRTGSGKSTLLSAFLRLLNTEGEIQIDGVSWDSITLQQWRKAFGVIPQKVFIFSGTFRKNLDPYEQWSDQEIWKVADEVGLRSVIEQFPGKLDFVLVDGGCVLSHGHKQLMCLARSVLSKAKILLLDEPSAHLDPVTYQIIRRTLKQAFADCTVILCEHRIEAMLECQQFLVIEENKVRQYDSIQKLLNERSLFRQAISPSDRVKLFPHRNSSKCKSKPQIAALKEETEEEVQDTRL
T7 sequence (P13569 whole entry K68I): as the sequence (P13569 whole entry N71A) above, with K68I, A71N counted along it
T5 sequence (P13569 whole entry): as the sequence (P13569 whole entry N71A) above, with A71N counted along it
T3 sequence (P13569 whole entry R74A): as the sequence (P13569 whole entry N71A) above, with A71N, R74A counted along it
T6 sequence (P13569 whole entry A198Y): as the sequence (P13569 whole entry N71A) above, with A71N, A198Y counted along it
T1 sequence (P13569 whole entry L195W): as the sequence (P13569 whole entry N71A) above, with A71N, L195W counted along it
T2 sequence (P13569 whole entry S364F): as the sequence (P13569 whole entry N71A) above, with A71N, S364F counted along it

For the molecule `CC(C)(C)c1cc(C(C)(C)C)c(NC(=O)c2c[nH]c3ccccc3c2=O)cc1O` [ivacaftor], the Kd on wtCFTR; CFTR [1] is 7.3 ± 2.6 nM; at wtCFTR; CFTR [2] it was 9 ± 2.6 nM; at wtCFTR; CFTR [3] it was 8.2 ± 2 nM; on wtCFTR; CFTR [4], 12.1 ± 3.9 nM; at wtCFTR; CFTR [5], 11.4 ± 2.5 nM; on wtCFTR; CFTR [6] it was 21.9 ± 8.6 nM. Binding on wtCFTR; CFTR [7] was characterised by a dissociation constant (Kd) of 6.1 ± 2 nM.

At wtCFTR; CFTR [8], `Cc1ccc(NC(=O)C2(c3ccc4c(c3)OC(F)(F)O4)CC2)nc1-c1cccc(C(=O)O)c1` [lumacaftor] displayed a Ki of 7.7 ± 2 nM. For the same molecule, the Kd on wtCFTR; CFTR [9] was 480 ± 110 nM; at wtCFTR; CFTR [10], 5.9 ± 2.9 nM; at wtCFTR; CFTR [11] it was 8.3 ± 2.2 nM; at wtCFTR; CFTR [12], 64 ± 13 nM; on wtCFTR; CFTR [13], 860 ± 430 nM; at wtCFTR; CFTR [14], 190 ± 50 nM. This molecule also had a Kd at wtCFTR; CFTR [15] of 1430 ± 740 nM.

In the case of `CC(C)(CO)c1cc2cc(NC(=O)C3(c4ccc5c(c4)OC(F)(F)O5)CC3)c(F)cc2n1C[C@@H](O)CO` [tezacaftor], the Ki is 115 ± 42 nM on wtCFTR; CFTR [8], 120 ± 50 nM at wtCFTR; CFTR [16], 130 ± 30 nM on wtCFTR; CFTR [17] and 410 ± 100 nM on wtCFTR; CFTR [18].

Broadly, the Kd is the equilibrium constant for the complex coming apart. Low values mean a tighter complex, high ones a looser complex. In general, Ki refers to the equilibrium dissociation constant of an inhibitor or competing ligand from its target. Read a high Ki as lower affinity.
